The results in this text go back to US20240269067A1 (GEL4MED, INC., priority 2020, published 2024).

The nature of this data set: Net charge and isoelectric point of peptide. Type of data set: physicochemical. The conditions noted are these: pH 7. From the text:
The peptide may be purified. For example, the peptide may be lyophilized. […] Other peptides are within the scope of the disclosure.
Exemplary peptides having a charge of +5 to +9 include […](d)[…], […](d)[…], and […](d)[…]. In other embodiments, the purified peptide may be substantially neutral. […] Net charge may be selected by peptide design. Design of electrostatic charge in the peptide hydrogel may allow control of charge interaction with cell membrane and proteins.

For the substance VEVSVSVEV(d)PPTEVSVEVEV, the net charge entry is “net negative charge”.
